In US6472348B1, “Pyridone derivatives and herbicides” (Kumiai Chemical Industry Co., Ltd., priority 1996, dated 2002):

How the values were obtained:
Type in all cases: in vivo
[1] = test system: barnyardgrass (Ec); test: Test Example 1: herbicidal effects by paddy field soil treatment; settings: 100 g of the active ingredient per 10 ares, 21st day after the application, index 0-5 of Table 47;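 further: grade of growth control; 5 = at least 90%; 4 = 70 to 90%; 3 = 50 to 70%; 2 = 30 to 50%; 1 = 10 to 30%; 0 = under 10%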
Experimental: (§1) (Test on Herbicidal Effects by Paddy Field Soil Treatment)
(§2) In a plastic pot (surface area: 100 cm^2) filled with paddy field soil, barnyardgrass (Ec), monochoria (Mo) and bulrush (Sc) were sown after puddling and leveling, and flooded to a water depth of 3 cm. […] The dose was 100 g of the active ingredient per 10 ares. The plants were then cultured in a green house, and the evaluation of the herbicidal effects was conducted on the 21st day after the application in accordance with the standards as identified in Table 47.

[2] = test system: bulrush (Sc); test: as above; settings: 100 g of the active ingredient per 10 ares, 21st day after the application, index 0-5 of Table 47;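 further: grade of growth control; 5 = at least 90%; 4 = 70 to 90%; 3 = 50 to 70%; 2 = 30 to 50%; 1 = 10 to 30%; 0 = under 10%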
Experimental: as §1, §2

[3] = test system: monochoria (Mo); test: as above; settings: 100 g of the active ingredient per 10 ares, 21st day after the application, index 0-5 of Table 47;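 further: grade of growth control; 5 = at least 90%; 4 = 70 to 90%; 3 = 50 to 70%; 2 = 30 to 50%; 1 = 10 to 30%; 0 = under 10%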
Experimental: as §1, §2

[4] = test system: Digitaria ciliaris (Di); test: Test Example 2: herbicidal effects by upland field soil treatment; settings: 100 g of the active ingredient per 10 ares, 21st day after the application, index 0-5 of Table 47;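 further: grade of growth control; 5 = at least 90%; 4 = 70 to 90%; 3 = 50 to 70%; 2 = 30 to 50%; 1 = 10 to 30%; 0 = under 10%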
Text: (§3) (Test on Herbicidal Effects by Upland Field Soil Treatment)

[5] = test system: barnyardgrass (Ec); test: as above; settings: 100 g of the active ingredient per 10 ares, 21st day after the application, index 0-5 of Table 47
Text: as §3

[6] = test system: common lambsquarters (Ch); test: as above; settings: 100 g of the active ingredient per 10 ares, 21st day after the application, index 0-5 of Table 47
Text: as §3

[7] = test system: pale smartweed (Po); test: as above; settings: 100 g of the active ingredient per 10 ares, 21st day after the application, index 0-5 of Table 47
Text: as §3

[8] = test system: rice flatsedge (Ci); test: as above; settings: 100 g of the active ingredient per 10 ares, 21st day after the application, index 0-5 of Table 47
Text: as §3

[9] = test system: slender amaranth (Am); test: as above; settings: 100 g of the active ingredient per 10 ares, 21st day after the application, index 0-5 of Table 47
Text: as §3

[10] = test system: Diaitaria ciliaris (Di); test: Test Example 3: herbicidal effects by upland field foliage treatment; design: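 grade of growth control; 5 = at least 90%; 4 = 70 to 90%; 3 = 50 to 70%; 2 = 30 to 50%; 1 = 10 to 30%; 0 = under 10%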; settings: 100 g of the active ingredient per 10 ares, evaluated on the 14th day after treatment
Experimental: (§4) (Test on Herbicidal Effects by Upland Field Foliage Treatment)
(§5) In a plastic pot (surface area: 120 cm^2) filled with sand, barnyardgrass (Ec), Diaitaria ciliaris (Di), pale smartweed (Po), slender amaranth (Am), common lambsquarters (Ch) and rice flatsedge (Ci) were sown and covered with soil and were cultured in a green house for 2 weeks. […] The plants were then cultured in the green house, and the evaluation of the herbicidal effects was conducted on the 14th day after the treatment in accordance with the standards as identified in Table 47. Symbol—represents “not tested”.

[11] = test system: barnyardgrass (Ec); test: as above; design: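 grade of growth control; 5 = at least 90%; 4 = 70 to 90%; 3 = 50 to 70%; 2 = 30 to 50%; 1 = 10 to 30%; 0 = under 10%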; settings: 100 g of the active ingredient per 10 ares, evaluated on the 14th day after treatment
Experimental: as §4, §5

[12] = test system: common lambsquarters (Ch); test: as above; design: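 grade of growth control; 5 = at least 90%; 4 = 70 to 90%; 3 = 50 to 70%; 2 = 30 to 50%; 1 = 10 to 30%; 0 = under 10%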; settings: 100 g of the active ingredient per 10 ares, evaluated on the 14th day after treatment
Experimental: as §4, §5

[13] = test system: pale smartweed (Po); test: as above; design: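 grade of growth control; 5 = at least 90%; 4 = 70 to 90%; 3 = 50 to 70%; 2 = 30 to 50%; 1 = 10 to 30%; 0 = under 10%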; settings: 100 g of the active ingredient per 10 ares, evaluated on the 14th day after treatment
Experimental: as §4, §5

[14] = test system: rice flatsedge (Ci); test: as above; design: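 grade of growth control; 5 = at least 90%; 4 = 70 to 90%; 3 = 50 to 70%; 2 = 30 to 50%; 1 = 10 to 30%; 0 = under 10%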; settings: 100 g of the active ingredient per 10 ares, evaluated on the 14th day after treatment
Experimental: as §4, §5

[15] = test system: slender amaranth (Am); test: as above; design: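 grade of growth control; 5 = at least 90%; 4 = 70 to 90%; 3 = 50 to 70%; 2 = 30 to 50%; 1 = 10 to 30%; 0 = under 10%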; settings: 100 g of the active ingredient per 10 ares, evaluated on the 14th day after treatment
Experimental: as §4, §5

Row | Structure (SMILES) | Herbicidal effects Ec [1] | Herbicidal effects Sc [2] | Herbicidal effects Mo [3] | Herbicidal effects Di [4] | Herbicidal effects Ec [5] | Herbicidal effects Ch [6] | Herbicidal effects Po [7] | Herbicidal effects Ci [8] | Herbicidal effects Am [9] | Herbicidal effects Di [10] | Herbicidal effects Ec [11] | Herbicidal effects Ch [12] | Herbicidal effects Po [13] | Herbicidal effects Ci [14] | Herbicidal effects Am [15]
1 | Cn1c(C(F)(F)F)ccc(-c2ccc(Cl)cc2Cl)c1=O [1-3] | 5 | 5 | 5 | 5 | 5 | 5 | 5 | 5 | 5 | 5 | 5 | 5 | 5 | 5 | 5
2 | CCOC(=O)C(C)Oc1cc(-c2ccc(C(F)(F)F)n(C)c2=O)c(F)cc1Cl (stereo not drawn) [1-21] | 5 | 5 | 5 | 5 | 5 | 5 | 5 | 5 | 5 | 5 | 5 | 5 | 5 | 5 | 5
3 | COCOc1cc(-c2ccc(C(F)(F)F)n(C)c2=O)c(F)cc1Cl [1-24] | 5 | 5 | 5 | 5 | 5 | 5 | 5 | 5 | 5 | 5 | 5 | 5 | 5 | 5 | 5
4 | CC(C)Oc1cc(-c2ccc(C(F)(F)F)n(C)c2=O)c(Cl)cc1Cl [1-29] | 5 | 5 | 5 | 5 | 5 | 5 | 5 | 5 | 5 | 5 | 5 | 5 | 5 | 5 | 5
5 | C=CCOc1cc(-c2ccc(C(F)(F)F)n(C)c2=O)c(Cl)cc1Cl [1-32] | 5 | 5 | 5 | 5 | 5 | 5 | 5 | 5 | 5 | 5 | 5 | 5 | 5 | 5 | 5
6 | CC(C)Sc1cc(-c2ccc(C(F)(F)F)n(C)c2=O)c(Cl)cc1Cl [1-51] | 5 | 5 | 5 | 5 | 4 | 5 | 5 | 5 | 5 | 5 | 4 | 5 | 5 | 5 | 5
7 | CCS(=O)(=O)Nc1cc(-c2ccc(C(F)(F)F)n(C)c2=O)c(F)cc1Cl [1-61] | 5 | 5 | 5 | 5 | 5 | 5 | 5 | 5 | 5 | 5 | 5 | 5 | 5 | 5 | 5
8 | CCOC(=O)C(C)Nc1cc(-c2ccc(C(F)(F)F)n(C)c2=O)c(F)cc1Cl (stereo not drawn) [1-64] | 5 | 5 | 5 | 5 | 5 | 5 | 5 | 5 | 5 | 5 | 5 | 5 | 5 | 5 | 5
9 | CCSC(=O)c1cc(-c2ccc(C(F)(F)F)n(C)c2=O)c(F)cc1Cl [1-67] | 5 | 5 | 5 | 5 | 5 | 5 | 5 | 5 | 5 | 5 | 5 | 5 | 5 | 5 | 5
10 | C=CCOc1cc(-c2cc(C)c(C(F)(F)F)n(C)c2=O)c(F)cc1Cl [1-77] | 5 | 5 | 5 | 5 | 5 | 5 | 5 | 5 | 5 | 5 | 5 | 5 | 5 | 5 | 5
11 | C#CC(C)Oc1cc(-c2cc(C)c(C(F)(F)F)n(C)c2=O)c(F)cc1Cl (stereo not drawn) [1-78] | 5 | 5 | 5 | 5 | 5 | 5 | 5 | 5 | 5 | 5 | 5 | 5 | 5 | 5 | 5
12 | Cc1cc(-c2cc(OC(C)C)c(Cl)cc2F)c(=O)n(C)c1C(F)(F)F [1-80] | 5 | 5 | 5 | 5 | 5 | 5 | 5 | 5 | 5 | 5 | 5 | 5 | 5 | 5 | 5
13 | COC(=O)COc1cc(-c2ccc(C(F)(F)F)n(C)c2=O)c(F)cc1Cl [1-99] | 5 | 5 | 5 | 5 | 5 | 5 | 5 | 5 | 5 | 5 | 5 | 5 | 5 | 5 | 5
14 | Cn1c(C(F)(F)F)ccc(-c2cc(OCC(=O)OC3CCCC3)c(Cl)cc2F)c1=O [1-102] | 5 | 5 | 5 | 5 | 5 | 5 | 4 | 5 | 5 | 5 | 5 | 5 | 5 | 5 | 5
15 | CCCOC(=O)COc1cc(-c2ccc(C(F)(F)F)n(C)c2=O)c(F)cc1Cl [1-104] | 5 | 5 | 5 | 5 | 5 | 5 | 5 | 5 | 5 | 5 | 5 | 5 | 5 | 5 | 5
16 | Cn1c(C(F)(F)F)ccc(-c2cc(OCC(=O)O)c(Cl)cc2F)c1=O [1-105] | 5 | 5 | 5 | 5 | 5 | 5 | 5 | 5 | 5 | 5 | 5 | 5 | 5 | 5 | 5
17 | Cn1c(C(F)(F)F)ccc(-c2cc(C3OCCO3)c(Cl)cc2F)c1=O [1-133] | 5 | 5 | 5 | 5 | 5 | 5 | 5 | 5 | 5 | 5 | 5 | 5 | 5 | 5 | 5
18 | Cn1c(C(F)(F)F)ccc(-c2cc(CO)c(Cl)cc2F)c1=O [1-135] | 5 | 5 | 5 | 5 | 5 | 5 | 5 | 5 | 5 | 5 | 5 | 5 | 5 | 5 | 5
19 | CCS(=O)(=O)N(C)c1cc(-c2ccc(C(F)(F)F)n(C)c2=O)c(F)cc1Cl [1-140] | 5 | 5 | 5 | 5 | 5 | 5 | 5 | 5 | 5 | 5 | 4 | 5 | 5 | 5 | 5
